# Measurements: patent US20160303094A1, “PHARMACEUTICAL COMPOSITIONS COMPRISING ANTIBACTERIAL AGENTS” (priority 2013, published 2016)
# Counter-ions that a name gives are not always drawn.
# Tested on: A. baumannii S 226 strain producing CHDL Oxacillinases (OXA 51, OXA-23)
# Assay: Time-kill study: viable bacterial count in Mueller Hinton broth
# Assay type: cell-based, Acinetobacter baumannii
# Conditions: for Bacterial count: initial count 6.62 log CFU/ml
# Description: The antibacterial activity of compositions according to the invention against various bacterial strains was investigated. In a typical study, freshly grown cultures were diluted to required cell density (initial starting inoculum) in Mueller Hinton broth medium (BD, USA). The antibacterial agents, either alone or in combination, at required concentrations were added into the medium containing the desired initial starting inoculum. The samples were incubated under shaking condition (120 rpm) at 37° C. Enumeration of viable bacterial count was undertaken, every 2 hours, by diluting in normal saline and plating on to the Tryptic Soya Agar plates (BD, USA). The plates were incubated for 24 hours to arrive at the viable bacterial count. The antibacterial activity is expressed in terms of Colony Forming Units (CFU). The decrease of 1 Log CFU/ml, after administration of combination of present invention, in comparison to initial bacterial count corresponds to 90% killing of bacteria. Similarly, 2 Log CFU/ml reductions corresponds to 99% killing of bacteria and 3 Log CFU/ml reductions is equal to 99.9% killing of bacteria.
# The combination according to invention was tested against highly resistant A. baumannii S 226 strain producing Carbapenem hydrolyzing (CHDL) Oxacillinases [OXA-51, OXA-23]. The assay without any antibacterial agent was taken as control.
# [1] = 2 hours, active ingredient alone at 8 mcg/ml
# [2] = 4 hours, active ingredient alone at 8 mcg/ml
# [3] = 6 hours, active ingredient alone at 8 mcg/ml
# [4] = 8 hours, active ingredient alone at 8 mcg/ml
# [5] = 24 hours, active ingredient alone at 8 mcg/ml
Structure (SMILES),Bacterial count [1],Bacterial count [2],Bacterial count [3],Bacterial count [4],Bacterial count [5],decrease of the bacterial count of A. baumannii throughout the duration of the study (used alone at 8 mcg/ml),"Bacterial count (2 hours, active ingredient alone at 4 mcg/ml)","Bacterial count (4 hours, active ingredient alone at 4 mcg/ml)","Bacterial count (6 hours, active ingredient alone at 4 mcg/ml)","Bacterial count (8 hours, active ingredient alone at 4 mcg/ml)","Bacterial count (24 hours, active ingredient alone at 4 mcg/ml)",decrease of the bacterial count of A. baumannii throughout the duration of the study (used alone at 4 mcg/ml)
C[C@@H](O)[C@H]1C(=O)N2C(C(=O)O)=C(S[C@@H]3CN[C@H](CNS(N)(=O)=O)C3)[C@H](C)[C@H]12 [Doripenem],7.95 Log10 CFU/ml,8.08 Log10 CFU/ml,8.12 Log10 CFU/ml,8.50 Log10 CFU/ml,8.30 Log10 CFU/ml,failed to decrease the bacterial count,,,,,,
C[C@@H](O)[C@H]1C(=O)N2C(C(=O)O)=C(SCCN=CN)C[C@H]12 [Imipenem],7.46 Log10 CFU/ml,8.26 Log10 CFU/ml,8.43 Log10 CFU/ml,8.52 Log10 CFU/ml,8.74 Log10 CFU/ml,,,,,,,
C[C@@H](O)[C@H]1C(=O)N2C(C(=O)O)=C(S[C@@H]3CN[C@H](C(=O)N(C)C)C3)[C@H](C)[C@H]12 [Meropenem],8.00 Log10 CFU/ml,8.34 Log10 CFU/ml,8.45 Log10 CFU/ml,8.65 Log10 CFU/ml,8.70 Log10 CFU/ml,failed to decrease the bacterial count,,,,,,
"N#C[C@@H]1CC[C@@H]2CN1C(=O)N2OS(=O)(=O)O [Sodium salt of a compound of Formula (I), sodium salt of sulphuric acid, mono[(1R,2S,5R)-2-cyano-7-oxo-1,6-diazabicyclo[3.2.1]oct-6-yl] ester]",,,,,,,7.93 Log10 CFU/ml,7.95 Log10 CFU/ml,8.20 Log10 CFU/ml,8.50 Log10 CFU/ml,8.60 Log10 CFU/ml,failed to decrease the bacterial count
